{"source": "patent US20180280429A1", "about": "“APPLICATION OF NITRATE IN PREPARATION OF DRUG PREVENTING OR TREATING BONE METABOLIC DISEASES” (Capital Medical University, priority 2015, published 2018)", "key": {"[1]": {"test_system": "BMMSCs of ovariectomized rats", "assay": "BMMSC proliferation by the CCK8 method (cells cultured from treated rats)", "type": "cell-based, SD rats", "details": "third generation cells from OVX rats given drinking water with nitrate, vs OVX group, *P<0.05", "text": "(§1) 12-week-old female SD rats were selected for the osteoporosis model and bilateral ovaries of them were removed. The experiment objects were divided into 3 groups: the sham operation group (Sham), the ovariectomized group (OVX) and the nitrate group (Nitrate), and there were 10 rats in each group. In the nitrate group, drinking water with sodium nitrate was given on the second day after ovariectomy (ovarianectomy) at a concentration of 2.5 mmol/L, and the daily intake of nitrate in each rat was about 0.5 mmol/Kg bw, the water with nitrate was given for 12 weeks, while normal drinking water was given in the other groups.\n(§2) After necropsy, the skin of the hind limbs was removed. After exposing the femur and tibia, the bone marrow was extracted with a 1 mL syringe to flush out from the stump. Cells were cultured in the α-MEM complete medium (containing 10% of bovine serum), and subcultured after the cells were clonally grown until 80% of the fusion.\n100 μl of cell suspension was inoculated in the 96-well plate, and the plate was pre-cultured in the incubator for 24 hours (under the condition of 37° C., 5% CO2). Then the plate was incubated in an incubator for 72 hours. 100 μl of culture medium was added to each well and 10 μl of CCK-8 solution was added to each hole. After 2 hours, the absorbance at 450 nm was measured with an enzyme labeled instrument."}, "[2]": {"test_system": "BMMSCs of ovariectomized rats", "assay": "BMMSC osteogenic differentiation, alizarin red staining (cells cultured from treated rats)", "type": "cell-based, SD rats", "details": "BMMSC from OVX rats given drinking water with nitrate, after 21 days of osteogenesis induction, vs OVX group, *P<0.05", "text": "as §1, §2\nPreparation of osteoinductive medium: adding 2 mmol/L glutamine, 100 U/ml penicillin and 100 μg/ml streptomycin, 10 mM β-glycerophosphate sodium, and 10 nM Dexamethasone and 50 mg/L vitamin C to 10% fetal bovine serum α-MEM medium. […]"}, "[3]": {"assay": "Measurement of nitrate and nitrite in serum (Griess)", "type": "in vivo, SD rats", "details": "after drinking water containing nitrate for 3 months, *p<0.05", "text": "as §1\n(1) Preparation of the standard: the double dilution of the original standard was 200 μM-3.125 μM\n(2) Determination of Nitrite Concentration:\n1) Adding 50 μl reaction buffer to blank holes;\n2) Adding 50 μl sample or standard to reaction buffer;\n3) Adding 50 μl of reaction buffer to each hole in sequence;\n4) Adding 50 μl of Griess Reagent I in each hole in sequence;\n5) Adding 50 μl of Griess Reagent II to each hole and incubating at room temperature for 10 minutes;\n6) Reading the OD value at 540 nm with a microplate reader and the value at 690 nm is used as calibration.\n(3) Determination of Nitrate Concentration: […]\n7) Reading the OD value at 540 nm with a microplate reader and the value at 690 nm is used as calibration."}, "TGF-β1, IFN-γ and IL-17": {"test_system": "TGF-β1, IFN-γ and IL-17", "assay": "Detection of TGF-β1, IFN-γ and IL-17 in serum", "type": "in vivo, SD rats", "details": "OVX rats, drinking water with nitrate, 12 weeks, vs OVX group, *P<0.05", "text": "as §1\n(2) Detection of TGF-β1, IFN-γ and IL-17\n1) The serum is diluted for 10 times, and 0.1 ml of which is placed into the 96-well plate of the kit. At the same time, the standard in the kit is taken and diluted in proportion, and then placed into the 96-well plate and incubated at 37° C./at room temperature for 30 minutes/1 hour according to the instructions. The obtained object is washed with a buffer for 3 times and each time lasts for 3 minutes.\n2) 100 μl enzyme-labeled antibody is added for incubating for 15 minutes/30 minutes at 37° C./at room temperature. The obtained object is washed for 3 times and each time lasts for 3 minutes.\n3) 100 μl substrate solution is added and then incubated for 15 minutes at room temperature/37° C.\n4) 100 μl stop solution is added to stop the reaction for 5 minutes.\n5) The readings of the enzyme labeled instrument at 450 nm is obtained."}, "ovariectomized rats [4]": {"test_system": "ovariectomized rats", "assay": "Bone density detection by Micro-CT of the upper tibia in the ovariectomized rat osteoporosis model", "type": "in vivo, SD rats", "details": "OVX rats, 12 weeks, vs OVX group"}, "ovariectomized rats [5]": {"test_system": "ovariectomized rats", "assay": "Tibia weight, body weight and adverse reactions in ovariectomized rats", "type": "in vivo, SD rats", "details": "OVX rats", "text": "as §1"}, "[6]": {"test_system": "regulatory T lymphocytes (Treg)", "assay": "Detection of the peripheral blood regulatory T cell ratio by flow cytometry", "type": "in vivo, SD rats", "details": "OVX rats, drinking water with nitrate, 12 weeks, vs OVX group, *P<0.05", "text": "as §1\n(1) The Detection of the Peripheral Blood Regulatory T Cell Ratio in the Rats\n1) Blood was collected from the abdominal aorta of the rats in each group and the serum was collected.\n2) 100 μl 0.1% BSA is added for resuspending, and then Anti-CD4, Anti-CD25 are added for incubating on ice for 30 minutes while avoiding light.\n3) The obtained mixture is centrifuged at 1500 rpm for 10 minutes, and then the supernatant is removed and 0.1% BSA is added for resuspending.\n4) The membrane-permeation solution is added on 4° C., 10 minutes.\n5) The obtained mixture is centrifuged at 1500 rpm for 10 minutes, and then the supernatant is removed and 0.1% BSA is added for resuspending.\n6) Anti-Foxp3 is added for incubating on ice for 30 minutes while avoiding light. […]"}, "[7]": {"details": "sodium nitrate 2.5 mmol/L in drinking water, *P<0.05"}}}
{"smiles": "O=[N+]([O-])[O-].[Na+]", "note": "[nitrate, sodium nitrate]", "values": [{"measurement": "proliferation of BMMSCs, OD450 value by CCK8 (FIG. 5A)", "setting": "[1]", "result": "significantly reduced the proliferation"}, {"measurement": "osteogenic differentiation of BMMSCs, alizarin red staining and quantification (FIG. 5B)", "setting": "[2]", "result": "significantly enhanced osteogenic differentiation"}, {"measurement": "content of nitrate in serum (FIG. 3A)", "setting": "[3]", "result": "significantly increased"}, {"measurement": "content of nitrite in serum (FIG. 3B)", "setting": "[3]", "result": "significantly increased"}, {"measurement": "level of IFN-γ in serum (FIG. 4C)", "setting": "TGF-β1, IFN-γ and IL-17", "result": "alleviate the up-regulation"}, {"measurement": "level of IL-17 in serum (FIG. 4D)", "setting": "TGF-β1, IFN-γ and IL-17", "result": "alleviate the up-regulation"}, {"measurement": "level of TGF-β1 in serum (FIG. 4B)", "setting": "TGF-β1, IFN-γ and IL-17", "result": "alleviate the down-regulation"}, {"measurement": "loss of tibial bone mass (MicroCT of the upper tibia, FIG. 1B)", "setting": "ovariectomized rats [4]; sodium nitrate 2.5 mmol/L in drinking water (about 0.5 mmol/Kg bw daily)", "result": "significantly relieved"}, {"measurement": "bone density (BMD), MicroCT quantitative analysis (FIG. 1C)", "setting": "ovariectomized rats [4]; [7]", "result": "partially recover"}, {"measurement": "bone volume fraction (BV/TV), MicroCT quantitative analysis (FIG. 1D)", "setting": "ovariectomized rats [4]; [7]", "result": "partially recover"}, {"measurement": "trabecular number (Tb.N), MicroCT quantitative analysis (FIG. 1F)", "setting": "ovariectomized rats [4]; [7]", "result": "partially recover"}, {"measurement": "trabecular thickness (Tb.Th), MicroCT quantitative analysis (FIG. 1E)", "setting": "ovariectomized rats [4]; [7]", "result": "partially recover"}, {"measurement": "adverse reactions", "setting": "ovariectomized rats [5]; nitrate in drinking water, at the time of preservation of bone mass", "result": "no obvious adverse reactions"}, {"measurement": "body weight (weight gain) (FIG. 2B)", "setting": "ovariectomized rats [5]; sodium nitrate 2.5 mmol/L in drinking water, 12 weeks", "result": "no significant effect on the weight gain"}, {"measurement": "tibia weight (FIG. 2A)", "setting": "ovariectomized rats [5]; sodium nitrate 2.5 mmol/L in drinking water, 12 weeks, vs OVX group", "result": "relieve the decrease of tibia weight"}, {"measurement": "proportion of regulatory T lymphocytes in peripheral blood CD4 positive cells (FIG. 4A)", "setting": "[6]", "result": "reduce the decline"}]}
